The values that follow come from patent US12077503B2, “Substituted cyclic amides and their use as herbicides” (FMC CORPORATION, priority 2015, dated 2024).

Holding throughout (format): in vivo
One assay concerns corn (Zea mays). The assay can be described thus: Test A postemergence. The note with it: Zea mays, post-emergence, 240 h; for plant injury at 125 g/ha: 125 g ai/ha, postemergence, visual injury vs untreated controls after approx. 10 d, 0 = no effect, 100 = complete control, read-out: Corn plant response rating (0 to 100 scale); for Corn plant response rating (crop injury, 0 = no effect, 100 = complete kill) at 500 g/ha: Postemergence, 500 g ai/ha, visual injury, 0 to 100 scale (0 no effect, 100 complete control), approx. 10 d. Put shortly: (§1)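 In a loam soil and sand blend, planted seeds got a preemergence directed soil spray, and young plants at the one- to two-leaf stage, 2–10 cm high, got a postemergence application; ~10 d greenhouse hold; injury rated visually, 0 = none, 100 = complete control.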

A further assay concerns Kochia (Kochia scoparia). Briefly: Test A postemergence. The settings on record: Bassia scoparia, post-emergence, 240 h; for pest or weed control at 125 g/ha: 125 g ai/ha, postemergence, visual injury vs untreated controls after approx. 10 d, 0 = no effect, 100 = complete control, read-out: Kochia plant response rating (0 to 100 scale); for pest or weed control at 500 g/ha: Postemergence, 500 g ai/ha, visual injury, 0 to 100 scale (0 no effect, 100 complete control), approx. 10 d, read-out: Plant response rating, Kochia. Put shortly:
as §1

The test system of assay [1] is pigweed (Amaranthus retroflexus). The assay can be described thus: Test A postemergence. The note with it: Amaranthus retroflexus, post-emergence, 240 h; for pest or weed control at 125 g/ha: 125 g ai/ha, postemergence, visual injury vs untreated controls after approx. 10 d, 0 = no effect, 100 = complete control, read-out: Pigweed plant response rating (0 to 100 scale); for pest or weed control at 500 g/ha: Postemergence, 500 g ai/ha, visual injury, 0 to 100 scale (0 no effect, 100 complete control), approx. 10 d, read-out: Plant response rating, Pigweed. Put shortly: as §1

Assay [2] has as its system ryegrass, Italian (Italian ryegrass, Lolium multiflorum). The assay can be described thus: Test A postemergence. The settings on record: Lolium multiflorum, post-emergence, 240 h; for pest or weed control at 125 g/ha: 125 g ai/ha, postemergence, visual injury vs untreated controls after approx. 10 d, 0 = no effect, 100 = complete control, read-out: Ryegrass, Italian plant response rating (0 to 100 scale); for pest or weed control at 500 g/ha: Postemergence, 500 g ai/ha, visual injury, 0 to 100 scale (0 no effect, 100 complete control), approx. 10 d, read-out: Plant response rating, Ryegrass, Italian. Put shortly:
as §1

In assay [3] the test system is wheat (Triticum aestivum). The assay can be described thus: Test A postemergence. The note with it: Triticum aestivum, post-emergence, 240 h; for plant injury at 500 g/ha: Postemergence, 500 g ai/ha, visual injury, 0 to 100 scale (0 no effect, 100 complete control), approx. 10 d, read-out: Plant response rating, Wheat. The procedure, abridged: as §1
Assay [4] has as its system giant foxtail (Setaria faberii). The assay can be described thus: Test A postemergence. The note with it: Setaria faberi, post-emergence, 240 h; for pest or weed control at 125 g/ha: 125 g ai/ha, postemergence, visual injury vs untreated controls after approx. 10 d, 0 = no effect, 100 = complete control, read-out: Foxtail, Giant plant response rating (0 to 100 scale); for pest or weed control at 500 g/ha: Postemergence, 500 g ai/ha, visual injury, 0 to 100 scale (0 no effect, 100 complete control), approx. 10 d, read-out: Plant response rating, Foxtail, Giant. The procedure, abridged:
as §1

Assay [5] has as its system blackgrass (Alopecurus myosuroides). Briefly: Test A postemergence. The note with it: Alopecurus myosuroides, post-emergence, 240 h; for pest or weed control at 125 g/ha: 125 g ai/ha, postemergence, visual injury vs untreated controls after approx. 10 d, 0 = no effect, 100 = complete control, read-out: Blackgrass plant response rating (0 to 100 scale); for pest or weed control at 500 g/ha: Postemergence, 500 g ai/ha, visual injury, 0 to 100 scale (0 no effect, 100 complete control), approx. 10 d, read-out: Plant response rating, Blackgrass. Put shortly: as §1

For assay [6], the system named is ragweed (common ragweed, Ambrosia elatior). Briefly: Test A postemergence. The note with it: Ambrosia artemisiifolia, post-emergence, 240 h; for pest or weed control at 125 g/ha: 125 g ai/ha, postemergence, visual injury vs untreated controls after approx. 10 d, 0 = no effect, 100 = complete control, read-out: Ragweed plant response rating (0 to 100 scale); for pest or weed control at 500 g/ha: Postemergence, 500 g ai/ha, visual injury, 0 to 100 scale (0 no effect, 100 complete control), approx. 10 d, read-out: Plant response rating, Ragweed. The procedure, abridged: as §1

For assay [7], the system named is barnyardgrass (Echinochloa crus-galli). Briefly: Test A postemergence. The note with it: Echinochloa crus-galli, post-emergence, 240 h; for pest or weed control at 125 g/ha: 125 g ai/ha, postemergence, visual injury vs untreated controls after approx. 10 d, 0 = no effect, 100 = complete control, read-out: Barnyardgrass plant response rating (0 to 100 scale); for pest or weed control at 500 g/ha: Postemergence, 500 g ai/ha, visual injury, 0 to 100 scale (0 no effect, 100 complete control), approx. 10 d, read-out: Plant response rating, Barnyardgrass. Put shortly:
as §1

Assay [8] concerns Galium (catchweed bedstraw, Galium aparine). The assay can be described thus: Test A postemergence. The settings on record: Galium, post-emergence, 240 h; for pest or weed control at 125 g/ha: 125 g ai/ha, postemergence, visual injury vs untreated controls after approx. 10 d, 0 = no effect, 100 = complete control, read-out: Galium plant response rating (0 to 100 scale); for pest or weed control at 500 g/ha: Postemergence, 500 g ai/ha, visual injury, 0 to 100 scale (0 no effect, 100 complete control), approx. 10 d, read-out: Plant response rating, Galium. The procedure, abridged: as §1

For assay [9], the system named is sedge, umbrella (small-flower umbrella sedge, Cyperus difformis). The assay can be described thus: Test B flooded paddy test. The settings on record: Cyperus difformis, 250 g ai/ha, Flood; 0 to 100 scale where 0 is no effect and 100 is complete control; read-out: Sedge, Umbrella plant response rating. Put shortly:
(§2)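 Flooding to 3 cm over soil accompanied treatment, which consisted of adding compound to the standing water around 2-leaf plants; depth was then maintained. Visual assessment versus controls followed at 13 to 15 d (scale 0–100, 0 meaning no effect).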

The subject of another assay is rice (Oryra sativa). The assay can be described thus: Test B flooded paddy test. The settings on record: Oryza sativa, 250 g ai/ha, Flood; 0 to 100 scale where 0 is no effect and 100 is complete control; read-out: Rice plant response rating. The procedure, abridged:
as §2

The subject of assay [10] is ducksalad (Heteranthera limosa). The assay can be described thus: Test B flooded paddy test. The settings on record: Heteranthera limosa, 250 g ai/ha, Flood; 0 to 100 scale where 0 is no effect and 100 is complete control; read-out: Ducksalad plant response rating. Put shortly:
as §2

The test system of assay [11] is barnyardgrass (Echinochloa crus-galli). Briefly: Test B flooded paddy test. The note with it: Echinochloa crus-galli, 250 g ai/ha, Flood; 0 to 100 scale where 0 is no effect and 100 is complete control; read-out: Barnyardgrass plant response rating. Put shortly:
as §2

Molecules are shown by their SMILES.

For `CCc1ccc([C@H]2CNC(=O)[C@@H]2C(=O)Nc2c(F)cccc2F)cc1` [Compound 1248], the plant injury at 125 g/ha in the assay on corn (Zea mays) is 0%; in assay [3] (125 g ai/ha, postemergence, visual injury vs untreated controls after approx. 10 d, 0 = no effect, 100 = complete control, read-out: Wheat plant response rating (0 to 100 scale)) it was 0%. In the assay on corn (Zea mays), this molecule returned a Corn plant response rating (crop injury, 0 = no effect, 100 = complete kill) at 500 g/ha of 0%. Besides, the pest or weed control at 125 g/ha (in the assay with Kochia (Kochia scoparia); in assay [1]; in assay [2]; in [4]; in [5]; in [6]) was 0% in each case. Also, the pest or weed control at 125 g/ha in assay [7] and in assay [8] was 0% throughout. Further, the pest or weed control at 500 g/ha in the assay on Kochia (Kochia scoparia) stood at 0%; in assay [1], 0%; in assay [2], 0%; in assay [4], 20%; in [5], 0%; in assay [6], 0%. Further, the pest or weed control at 500 g/ha in assay [7] is 50%; in [8], 0%. The plant injury at 500 g/ha in [3] came to 0%. Moreover, the pest or weed control at 250 g/ha is 0% in assay [9], 0% in the assay with rice (Oryra sativa), 70% in assay [10] and 15% in assay [11].
For the molecule `CN1C[C@H](c2ccc(F)c(C#N)c2)[C@@H](C(=O)Nc2cccc(F)c2F)C1=O` [Compound 1255], the plant injury at 125 g/ha in the assay on corn (Zea mays) was 60%. The molecule also gave a Corn plant response rating (crop injury, 0 = no effect, 100 = complete kill) at 500 g/ha in the assay on corn (Zea mays) of 90%. In addition, the pest or weed control at 125 g/ha was 20% in the assay with Kochia (Kochia scoparia); 0% in [1]; 20% in assay [2]; 80% in assay [4]; 0% in [5]; 0% in [6]. Also, the pest or weed control at 125 g/ha in [7] was 90%; in assay [8], 40%. The pest or weed control at 500 g/ha came out at 50% in the assay on Kochia (Kochia scoparia); 30% in assay [1]; 40% in assay [2]; 80% in [4]; 60% in assay [5]; 40% in assay [6]. In addition, the pest or weed control at 500 g/ha in assay [7] amounted to 100%; in assay [8], 60%. For the same molecule, in [3], the plant injury at 500 g/ha amounted to 60%. Besides, the pest or weed control at 250 g/ha in assay [9] turned out to be 0%; in the assay on rice (Oryra sativa), 0%; in assay [10], 100%; in assay [11], 65%.
Consider `CN1C[C@H](c2ccc(C(F)F)cc2)[C@@H](C(=O)Nc2ccc(F)c(F)c2F)C1=O` [Compound 1260], for which the plant injury at 125 g/ha in the assay with corn (Zea mays) is 90%. In the assay with corn (Zea mays), this molecule had a Corn plant response rating (crop injury, 0 = no effect, 100 = complete kill) at 500 g/ha of 90%. For the same molecule, the pest or weed control at 125 g/ha with Kochia (Kochia scoparia) was determined as 60%; in assay [1] it was 50%; in assay [2] it was 60%; in assay [4], 80%; in assay [5], 70%; in [6], 50%. Besides, the pest or weed control at 125 g/ha worked out at 90% in assay [7] and 70% in assay [8]. Moreover, the pest or weed control at 500 g/ha with Kochia (Kochia scoparia) is 70%; in assay [1], 70%; in assay [2] it was 80%; in assay [4], 90%; in assay [5] it was 80%; in assay [6] it was 70%. The pest or weed control at 500 g/ha in [7] is 90%; in assay [8], 70%. In addition, the plant injury at 500 g/ha in assay [3] was determined as 90%. For the same molecule, the pest or weed control at 250 g/ha in assay [9] amounted to 0%; in the assay with rice (Oryra sativa) it was 50%; in assay [10], 100%; in assay [11] it was 80%.
